Assay results as given in patent publication US20070082858A1, “Methods and compositions for the prevention of toxic side effects of aminoglycoside medications” (priority 2004, published 2007).
Entries after “also recorded” stand apart in the source; their conditions may differ.

What was measured:
MDCK cells = assay: GTTR uptake into MDCK cells under TRPV1 agonists/antagonists, cation channel blockers, cations and pH (30-60 seconds, 20° C., FATX fixation, confocal imaging); conditions: for hydrolyzed TR penetration into the cytoplasm (control for toxicity or increased permeability): highest doses shown: 5×10^−7 M RTX; for GTTR uptake stimulated by TRPV1 agonists/antagonists: AND, SB366791 or I-RTX
Text: MDCK cells were used as a model system to test regulation of GTTR uptake by conditions known to produce or modify a cation current through the TRPV1 channel. Conditions tested were varying extracellular calcium concentrations, pH, specific agonists, specific antagonists, and the non-specific cation channel blocker Ruthenium Red. In addition, we pre-mixed PIP2 with GTTR to determine whether that anionic phospholipid, known to bind gentamicin, would alter GTTR uptake. All these assays were done at room temperature (20° C.), for 30 or 60 seconds, and using doses of GTTR of 5 to 10 μg/ml, which are far below the typical therapeutic level of <300 μg/ml. Buffers used for treatment were as described for each experiment. Cells were quickly washed to replace culture medium with treatment buffer, treated as indicated, washed again after treatment, fixed immediately with 4% formaldehyde and 0.5% Triton X-100 (FATX), and washed prior to imaging.
Methods: Cells were seeded into 8-well coverglass chambers at 3000 cells/well and grown for 5 days.
Cells were washed three times with the buffer to be used in the particular experiment, treated with GTTR and experimental variable for 30 or 60 seconds at 20° C., precluding endocytosis. Following treatment, cells were rinsed three times with buffer, then fixed and delipidated with 4% formaldehyde plus 0.5% Triton X-100 (FATX) for 45 minutes. Following fixation, cells were rinsed with PBS (Invitrogen, CA) for at least 4-6 times, or until foaming in the suction pipette ceased. In contrast to previous experiments, no FBS was present in the treatment media, allowing for more rapid uptake of the antibiotic-based GTTR.
MDCK cells were washed with Hank's buffered salt solution (HBSS; Invitrogen, CA), then placed into buffers of varying potassium concentrations. HBSS was mixed with equi-osmolar KCl/HBSS to produce the required K^+ concentrations. Cells were treated with 1 μg/mL GTTR for 1 minute, then washed and fixed as described above.
Cells were washed with PBS (Invitrogen, CA), then placed into buffers containing varying concentrations of calcium, obtained by mixing HBSS with equimolar CaCl2, each at pH 7.3. Cells were treated with 5 μg/mL of GTTR for 30 seconds, then washed and fixed as above.
Cells were washed with saline, then treated with 5 μg/mL of GTTR in saline buffers of varying pH for 30 seconds, then washed and fixed as above. Sodium hydroxide and hydrochloric acid were used to alter pH. These experiments were performed in three different saline buffers: (i) PBS (no calcium), (ii) a mixture of […] for a final calcium concentration of 0.32 mM, and (iii) a mixture of three parts PBS to one part HBSS for a final calcium concentration of 0.97 mM.
Cells were washed three times with Ca^++-free saline (0.9% NaCl), then treated with 5 μg/mL GTTR and one of the following for 30 seconds: TRPV1 agonists (resiniferatoxin [RTX]; or anandamide [AND]; Alexis Biochemicals, San Diego, Calif.); or antagonists (iodo-RTX, or SB 366791; Tocris, Ellisville, Mo.). Cells were then washed in saline and fixed as above.
Cells were washed three times with Ca^++-free 0.9% NaCl, then treated with 5 μg/mL GTTR and one of the following for 30 seconds: 100 μM Ruthenium Red, 100 μM Ruthenium Red plus one of the TRPV1 agonists or antagonists described above; or lanthanum (La^+++) at 0.5 or 5 mM.

[1] = test system: bullfrog saccular hair cells; assay: GTTR uptake in bullfrog saccular explants with TRPV1 regulators; format: cell-based
Procedure: Bullfrogs (Rana catesbeiana) were anesthetized with 0.2% MS-222 and chilled before decapitation. The temporal bones were excised in cold oxygenated HEPES-buffered saline (HBS) containing 110 mM Na+; 2 mM K+; 4 mM Ca2+; 120 mM Cl−; 3 mM D-glucose, and 5 mM HEPES (pH=7.25; 220 mOsmols). Each saccule was isolated and the otolithic membrane removed by proteolytic digestion for 20 minutes in oxygenated 50 μg/ml subtilopeptidase BPN (Sigma) at room temperature. Saccular explants were then incubated in Wolf-Quimby culture medium (containing 1 mM Ca2+; Life Technologies) supplemented with 100 μg/ml ciprofloxacin in a 5% CO2 environment at 25° C. (Steyger et al. 1997; Steyger et al. 1998). Gentamicin-treated explants were incubated in the above culture media, supplemented with 300 μg/ml GT/GTTR.

inner ear explants = assay: GTTR uptake in explants of bullfrog and murine inner ears (Example 9); format: cell-based
Text: Deafness and nephrotoxicity are serious consequences of aminoglycoside (AG) therapy. As discussed above, in cultured kidney cells, the non-endocytotic component of fluorescently-labeled gentamicin (GTTR) uptake was regulated by TRPV1 channel agonists and antagonists (pH, Ca^++, RTX). This example discusses the influence of these modulators on GTTR uptake in explants of bullfrog and murine inner ears.

murine cochlear explants = assay: GTTR uptake in murine cochlear explants with RTX; format: cell-based; conditions: level of OHC nuclei
[2] = cited from earlier work

For `CCCCC/C=C\C/C=C\C/C=C\C/C=C\CCCC(=O)NCCO` [AND, anandamide], the GTTR uptake (MDCK cells; AND 10^−4 M, calcium-free saline pH 7.3) was “little, or no, increase over controls; also recorded: little or no increase over controls”, the GTTR uptake (MDCK cells; AND 10^−5 M, calcium-free saline pH 7.3 (Example 1: greater extent than 10^−6 M)) was “increased, although not to the level seen with RTX” and the GTTR uptake (MDCK cells; AND 10^−6 M, calcium-free saline pH 7.3) was “increased, although not to the level seen with RTX”.
In the case of `[Gd+3]` [Gd^+++, Gadolinium], the GTTR uptake (MDCK cells; 0.5, 5, or 50 mM Gd^+++ in HBSS pH 7.3, 30 seconds) is reported as “serially decreased”.
For `C=C(C)[C@]12C[C@@H](C)[C@@]34O[C@](Cc5ccccc5)(O[C@@H]1[C@@H]3C=C(COC(=O)Cc1cc(I)c(O)c(OC)c1)C[C@]1(O)C(=O)C(C)=C[C@@H]41)O2` [I-RTX], the GTTR uptake (MDCK cells; 10^−5 M I-RTX with 0.16 or 2.0 mM added calcium, pH 7.0) was “still caused increased GTTR uptake”, the GTTR uptake (MDCK cells; 10^−5 M I-RTX, saline without added calcium, pH 7.0, 1 μg/mL GTTR 30 seconds) was “increased GTTR uptake” and the GTTR fluorescence (MDCK cells; I-RTX 10^−5 M, calcium-free saline pH 7.3) was “well over the upper limit of the available 0 to 255 gray scale”. For the same molecule, the “hydrolyzed TR penetration into the cytoplasm (control for toxicity or increased permeability)” value (MDCK cells; 10^−5 M I-RTX) was “Neither I-RTX or RTX induced TR penetration into the cytoplasm”, the “GTTR uptake, effect compared with SB366791” value (MDCK cells; iodo-RTX dose series 10^−7 to 10^−5 M, calcium-free saline pH 7.3, listed as 1-RTX) was “dramatic; also recorded: more dramatic” and the “GTTR uptake in saccular hair cells” value ([1]; iodo-RTX) was “significantly enhanced by iodo-RTX”.
With `[Cl-].[K+]` [K^+, KCl] the GTTR uptake (MDCK cells; K^+ increased from 10 mM to 140 mM vs 5.8 mM, HBSS pH 7.3, 1 minute) was “clear and considerable decrease in GTTR uptake” and the GTTR uptake (inner ear explants; potassium depolarization of explants) was “decreased GTTR uptake”.
With `N.N.N.N.N.N.N.N.N.N.N.N.N.N.[Cl-].[Cl-].[Cl-].[Cl-].[Cl-].[Cl-].[O-2].[O-2].[Ru+3].[Ru+3].[Ru+4]` [RR, Ruthenium Red] the GTTR uptake (MDCK cells; 10 mM RR alone (Example 1)) was “took up less GTTR than controls”, the “GTTR uptake stimulated by TRPV1 agonists/antagonists” value (MDCK cells; 10 mM RR plus RTX, AND effect not completely blocked (Example 1)) was “blocked GTTR increases stimulated by RTX, AND, SB366791, and I-RTX” and the GTTR uptake (MDCK cells; 10^−5 M RR alone (Example 11)) was “took up less GTTR than controls”. For the same molecule, the “GTTR uptake stimulated by TRPV1 agonists/antagonists” value (MDCK cells; 10^−5 M RR plus RTX, AND effect not completely blocked (Example 11)) was “blocked GTTR increases stimulated by RTX, AND, SB366791, and I-RTX”, the “GTTR uptake in saccular hair cells” value ([1]; Ruthenium Red) was “significantly reduced by Ruthenium Red” and the “GTTR uptake in saccular hair cells” value ([1]; Ruthenium Red in explants co-treated with iodo-RTX) was “significantly reduced by Ruthenium Red”.
With `C=C(C)[C@]12C[C@@H](C)[C@@]34O[C@](Cc5ccccc5)(O[C@@H]1[C@@H]3C=C(COC(=O)Cc1ccc(O)c(OC)c1)C[C@]1(O)C(=O)C(C)=C[C@@H]41)O2` [RTX, resiniferatoxin] the GTTR uptake (MDCK cells; 5×10^−9 M RTX with 0.16 or 2.0 mM added calcium, pH 7.0) was “reduced GTTR uptake compared to controls at the same calcium levels”, the GTTR uptake (MDCK cells; 5×10^−9 M RTX, saline without added calcium, pH 7.0, 1 μg/mL GTTR 30 seconds) was “increased GTTR uptake” and the GTTR uptake (MDCK cells; RTX 5×10^−7 M, calcium-free saline pH 7.3, 5 μg/mL GTTR 30 seconds) was “little or no change over control”. For the same molecule, the GTTR uptake (MDCK cells; RTX 5×10^−8 M, calcium-free saline pH 7.3, 5 μg/mL GTTR 30 seconds) was “increased, but to a lesser extent”, the GTTR uptake (MDCK cells; RTX 5×10^−9 M, calcium-free saline pH 7.3, 5 μg/mL GTTR 30 seconds) was “significantly increased” and the GTTR uptake (MDCK cells; RTX 10^−6 M, calcium-free saline pH 7.3) was “little or no change over control”. The GTTR uptake (MDCK cells; RTX 10^−7 M, calcium-free saline pH 7.3) was “increased to a lesser extent”, the GTTR uptake (MDCK cells; RTX 10^−8 M, calcium-free saline pH 7.3) was “significantly increased” and the GTTR uptake (MDCK cells; RTX with calcium concentrations as low as 0.08 mM) was “inhibited GTTR uptake”. For the same molecule, the GTTR uptake (MDCK cells; combination of 2 mM Ca^++ and 5×10^−9 RTX) was “greatly reduced GTTR uptake”, the “hydrolyzed TR penetration into the cytoplasm (control for toxicity or increased permeability)” value (MDCK cells; 10^−5 M I-RTX) was “Neither I-RTX or RTX induced TR penetration into the cytoplasm” and the “GTTR uptake in the organ of Corti” value (murine cochlear explants; RTX plus Ca++) was “reduced further by RTX plus Ca++”. For the same molecule, the “GTTR uptake in the organ of Corti” value (murine cochlear explants; RTX) was “reduced by RTX”, the “GTTR uptake in saccular hair cells” value ([1]; RTX and Ca++ co-treatment) was “reduced by co-treatment with RTX, and Ca++” and the “GTTR uptake in saccular hair cells” value ([1]; RTX co-administered with GTTR) was “significantly reduced by RTX”. For the same molecule, the GTTR uptake (inner ear explants; RTX at 0.16 mM Ca^++) was “enhanced GTTR uptake” and the GTTR uptake (inner ear explants; RTX at physiological Ca^++ levels) was “reduced GTTR uptake”.
For `COc1cccc(NC(=O)/C=C/c2ccc(Cl)cc2)c1` [SB366791], the GTTR uptake (MDCK cells; SB366791 10^−7 M to 10^−5 M, calcium-free saline pH 7.3) was “increased GTTR uptake significantly; also recorded: serially increased GTTR uptake”.
For `CC(C)[C@@H]1NC(=O)[C@H](C)OC(=O)[C@@H](C(C)C)NC(=O)[C@@H](C(C)C)OC(=O)[C@H](C(C)C)NC(=O)[C@H](C)OC(=O)[C@@H](C(C)C)NC(=O)[C@@H](C(C)C)OC(=O)[C@H](C(C)C)NC(=O)[C@H](C)OC(=O)[C@@H](C(C)C)NC(=O)[C@@H](C(C)C)OC1=O` [Valinomycin], the GTTR uptake (MDCK cells; 10 μg/mL valinomycin in HBSS pH 7.3, 5 μg/mL GTTR 30 seconds) was “decreased the uptake of GTTR compared to control cells”.
With `[Ca+2].[Cl-].[Cl-]` [calcium, calcium chloride] the GTTR uptake (MDCK cells; 0.16 mM Ca^++ vs no calcium added or 2.0 mM, pH 7.0, 1 μg/mL GTTR) was “higher”, the GTTR uptake (MDCK cells; 0.16 mM calcium vs no calcium added, saline pH 7.3) was “increased” and the GTTR uptake (MDCK cells; calcium concentrations above 0.16 mM, saline pH 7.3) was “GTTR uptake decreased”. The GTTR uptake (MDCK cells; calcium levels higher than 1.8 mM) was “almost completely blocking uptake”, the GTTR uptake (MDCK cells; physiological calcium levels (1.8 mM)) was “inhibitory” and the GTTR uptake (inner ear explants; 0.16 mM Ca^++ compared to 0.0 mM Ca^++) was “greater GTTR uptake”.
For `[H]/N=C(/N)N[C@H]1[C@H](O)[C@@H](O)[C@H](O[C@@H]2O[C@@H](C)[C@](O)(C=O)[C@H]2O[C@@H]2O[C@@H](CO)[C@H](O)[C@@H](O)[C@@H]2NC)[C@@H](N/C(N)=N\[H])[C@@H]1O` [streptomycin], the “incidence of vestibular impairment” value ([2]; 1 gram per day) is listed as 25% and the “patients displaying some vestibular impairment” value ([2]; 2 grams daily for 60 to 120 days) is listed as about 75%.
